We go through 58 compounds from patent US9145391B2, “Bipyridylaminopyridines as Syk inhibitors” (Merck Sharp & Dohme Corp., priority 2011, dated 2015).

The assay has as its target recombinant human GST-Syk (Homo sapiens (Human), UniProt P43405). In words: Homogeneous Time-Resolved Fluorescence (HTRF) assay for the recombinant human Syk enzyme. The assay is classed as biochemical. To be noted: recombinant human GST-Syk 5 pM, ATP 25 μM, read-out: rhSyk IC50. In a few lines:
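Recombinant GST-hSyk fusion protein kinase activity was read by HTRF. Reactions were started with biotinylated substrate peptide at 250 nM final, Mg 5 mM final and ATP 25 μM final. Potency derived from inhibition of substrate phosphorylation.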
(In general: TR-FRET usually uses a lanthanide donor and a delayed reading to cut background.)
One may read the IC50 as the concentration that gives 50% inhibition. For `CCc1ccc(OCC(=O)N2CCC(Nc3ccc(-c4cc(C)cc(Nc5cc(C(F)(F)F)ccn5)n4)cn3)CC2)cc1` [Example 4-56], the IC50 was 39 nM.

On to `Cc1cc(Nc2cc(C(F)(F)F)ccn2)nc(-c2ccc(NC3CCN(C(=O)Cc4ccc(Oc5ccccc5)cc4)CC3)nc2)c1` [Example 4-57], for which the IC50 worked out at 175 nM.

In the case of `CC(=O)Nc1cccc(C(=O)N2CCC(Nc3ccc(-c4cc(C)cc(Nc5cc(C(F)(F)F)ccn5)n4)cn3)CC2)c1` [Example 4-58], the half-inhibitory concentration (IC50) was found to be 4 nM. For the compound `Cc1cc(Nc2cc(C(F)(F)F)ccn2)nc(-c2ccc(NC3CCN(C(=O)c4cccc5ccccc45)CC3)nc2)c1` [Example 4-59], the IC50 is 61 nM.

`Cc1cc(Nc2cc(C(F)(F)F)ccn2)nc(-c2ccc(NC3CCN(C(=O)c4cn(Cc5ccccc5)c5ccccc45)CC3)nc2)c1` [Example 4-60]: the 50% inhibitory concentration (IC50) is 422 nM.

`Cc1cc(Nc2cc(C(F)(F)F)ccn2)nc(-c2ccc(NC3CCN(C(=O)c4cc5ccccc5cn4)CC3)nc2)c1` [Example 4-61]: the IC50 amounted to 4 nM.

Regarding `Cc1cc(Nc2cc(C(F)(F)F)ccn2)nc(-c2ccc(NC3CCN(C(=O)c4cccc(-c5cc[nH]n5)c4)CC3)nc2)c1` [Example 4-62], the IC50 was determined as 15 nM.

As for `Cc1cc(Nc2cc(C(F)(F)F)ccn2)nc(-c2ccc(NC3CCN(C(=O)c4cnc5ccccn45)CC3)nc2)c1` [Example 4-63], the 50% inhibitory concentration (IC50) is 7 nM. In the case of `COc1c(C(=O)N2CCC(Nc3ccc(-c4cc(C)cc(Nc5cc(C(F)(F)F)ccn5)n4)cn3)CC2)ccc2ccccc12` [Example 4-64], the concentration for half-maximal inhibition (IC50) came to 83 nM. In the case of `Cc1cc(Nc2cc(C(F)(F)F)ccn2)nc(-c2ccc(NC3CCN(C(=O)c4nccc5ccccc45)CC3)nc2)c1` [Example 4-65], the IC50 is 20 nM. Regarding `Cc1cc(Nc2cc(C(F)(F)F)ccn2)nc(-c2ccc(NC3CCN(C(=O)c4ccnc5ccccc45)CC3)nc2)c1` [Example 4-66], the IC50 is 24 nM. On to `Cc1cc(Nc2cc(C(F)(F)F)ccn2)nc(-c2ccc(NC3CCN(C(=O)c4cccc5c4oc4ccccc45)CC3)nc2)c1` [Example 4-67], for which the IC50 was determined as 178 nM.

On to `Cc1cc(Nc2cc(C(F)(F)F)ccn2)nc(-c2ccc(NC3CCN(C(=O)Cc4ccccn4)CC3)nc2)c1` [Example 4-68], for which the IC50 is 2 nM. As for `Cc1cc(Nc2cc(C(F)(F)F)ccn2)nc(-c2ccc(NC3CCN(C(=O)Cc4ccc(-c5ccccc5)cc4)CC3)nc2)c1` [Example 4-69], the IC50 turned out to be 138 nM. Consider `Cc1cc(Nc2cc(C(F)(F)F)ccn2)nc(-c2ccc(NC3CCN(C(=O)Cc4ccccc4C#N)CC3)nc2)c1` [Example 4-70], for which the IC50 was determined as 6 nM.

For the compound `Cc1cc(Nc2cc(C(F)(F)F)ccn2)nc(-c2ccc(NC3CCN(C(=O)c4ccccc4Cl)CC3)nc2)c1` [Example 4-71], the IC50 was 21 nM. Turning to `Cc1cc(Nc2cc(C(F)(F)F)ccn2)nc(-c2ccc(NC3CCN(C(=O)c4ccc(C(F)(F)F)cc4)CC3)nc2)c1` [Example 4-72], the IC50 was found to be 56 nM. `Cc1cc(Nc2cc(C(F)(F)F)ccn2)nc(-c2ccc(NC3CCN(C(=O)Cc4ccc(Cl)cc4)CC3)nc2)c1` [Example 4-73]: the IC50 came to 21 nM. Consider `Cc1cc(Nc2cc(C(F)(F)F)ccn2)nc(-c2ccc(NC3CCN(C(=O)Cc4cccc(Oc5ccccc5)c4)CC3)nc2)c1` [Example 4-74], for which the IC50 was found to be 57 nM. With `Cc1cc(Nc2cc(C(F)(F)F)ccn2)nc(-c2ccc(NC3CCN(C(=O)Cc4ccccc4C(F)(F)F)CC3)nc2)c1` [Example 4-75], the IC50 stood at 39 nM. As for `Cc1cc(Nc2cc(C(F)(F)F)ccn2)nc(-c2ccc(NC3CCN(C(=O)CCOc4ccccc4)CC3)nc2)c1` [Example 4-76], the IC50 was 10 nM.

In the case of `Cc1cc(Nc2cc(C(F)(F)F)ccn2)nc(-c2ccc(NC3CCN(C(=O)Cc4cccnc4)CC3)nc2)c1` [Example 4-77], the IC50 was 1 nM.

As for `Cc1cc(Nc2cc(C(F)(F)F)ccn2)nc(-c2ccc(NC3CCN(C(=O)c4ccc5nc(C)sc5c4)CC3)nc2)c1` [Example 4-78], the 50% inhibitory concentration (IC50) worked out at 4 nM.

`CC(=O)Nc1ccc(C(=O)N2CCC(Nc3ccc(-c4cc(C)cc(Nc5cc(C(F)(F)F)ccn5)n4)cn3)CC2)cc1` [Example 4-79]: the IC50 was found to be 4 nM. Regarding `Cc1cc(Nc2cc(C(F)(F)F)ccn2)nc(-c2ccc(NC3CCN(C(=O)COc4ccccc4)CC3)nc2)c1` [Example 4-80], the IC50 was 28 nM. Turning to `Cc1cc(Nc2cc(C(F)(F)F)ccn2)nc(-c2ccc(NC3CCN(C(=O)c4ccc(-c5ccccc5)cc4)CC3)nc2)c1` [Example 4-81], the IC50 amounted to 44 nM. For `Cc1cc(Nc2cc(C(F)(F)F)ccn2)nc(-c2ccc(NC3CCN(C(=O)Cc4cccc(C#N)c4)CC3)nc2)c1` [Example 4-82], the IC50 came out at 3 nM. Take `Cc1cc(Nc2cc(C(F)(F)F)ccn2)nc(-c2ccc(NC3CCN(C(=O)Cc4cccc(O)c4)CC3)nc2)c1` [Example 4-83]: the IC50 stood at 3 nM.

Consider `Cc1cc(Nc2cc(C(F)(F)F)ccn2)nc(-c2ccc(NC3CCN(C(=O)c4ccncc4)CC3)nc2)c1` [Example 4-84], for which the IC50 is 4 nM. As to `Cc1cc(Nc2cc(C(F)(F)F)ccn2)nc(-c2ccc(NC3CCN(C(=O)c4cccc(C#N)c4)CC3)nc2)c1` [Example 4-85], the half-maximal inhibitory concentration (IC50) was 7 nM. For the compound `Cc1cc(Nc2cc(C(F)(F)F)ccn2)nc(-c2ccc(NC3CCN(C(=O)c4n[nH]c5ccccc45)CC3)nc2)c1` [Example 4-86], the IC50 amounted to 7 nM. The figure for `COc1ccccc1C(=O)N1CCC(Nc2ccc(-c3cc(C)cc(Nc4cc(C(F)(F)F)ccn4)n3)cn2)CC1` [Example 4-87] is 6 nM; for `Cc1cc(Nc2cc(C(F)(F)F)ccn2)nc(-c2ccc(NC3CCN(C(=O)Cc4c(C)[nH]c5ccccc45)CC3)nc2)c1` [Example 4-88] it is 11 nM; for `Cc1cc(Nc2cc(C(F)(F)F)ccn2)nc(-c2ccc(NC3CCN(C(=O)CCCN4CCCC4=O)CC3)nc2)c1` [Example 4-89] it is 1 nM. Next, `Cc1cc(Nc2cc(C(F)(F)F)ccn2)nc(-c2ccc(NC3CCN(C(=O)c4ccc(C#N)cc4)CC3)nc2)c1` [Example 4-90]: 4 nM. With `Cc1cc(Nc2cc(C(F)(F)F)ccn2)nc(-c2ccc(NC3CCN(C(=O)Cc4ccc(C#N)cc4)CC3)nc2)c1` [Example 4-91], the IC50 turned out to be 4 nM. Next, `Cc1cc(Nc2cc(C(F)(F)F)ccn2)nc(-c2ccc(NC3CCN(C(=O)c4cnc5ccccc5c4)CC3)nc2)c1` [Example 4-92]: 4 nM; `COc1ccc(C(=O)N2CCC(Nc3ccc(-c4cc(C)cc(Nc5cc(C(F)(F)F)ccn5)n4)cn3)CC2)cc1` [Example 4-93]: 5 nM; `Cc1cc(Nc2cc(C(F)(F)F)ccn2)nc(-c2ccc(NC3CCN(C(=O)c4cccnc4)CC3)nc2)c1` [Example 4-94]: 2 nM. With `Cc1cc(Nc2cc(C(F)(F)F)ccn2)nc(-c2ccc(NC3CCN(C(=O)Cc4ccccc4Cl)CC3)nc2)c1` [Example 4-95], the 50% inhibitory concentration (IC50) is 12 nM. Regarding `Cc1cc(Nc2cc(C(F)(F)F)ccn2)nc(-c2ccc(NC3CCN(C(=O)Cc4cccc(C(F)(F)F)c4)CC3)nc2)c1` [Example 4-96], the IC50 was 103 nM. Turning to `Cc1cc(Nc2cc(C(F)(F)F)ccn2)nc(-c2ccc(NC3CCN(C(=O)c4ccc5nc(C)c(C)nc5c4)CC3)nc2)c1` [Example 4-97], the concentration for half-maximal inhibition (IC50) turned out to be 2 nM.

In the case of `Cc1cc(Nc2cc(C(F)(F)F)ccn2)nc(-c2ccc(NC3CCN(C(=O)c4ccc5[nH]ncc5c4)CC3)nc2)c1` [Example 4-98], the IC50 amounted to 5 nM.

Consider `Cc1cc(Nc2cc(C(F)(F)F)ccn2)nc(-c2ccc(NC3CCN(C(=O)c4cn(C)c5ccccc45)CC3)nc2)c1` [Example 4-99], for which the IC50 stood at 11 nM. Consider `Cc1cc(Nc2cc(C(F)(F)F)ccn2)nc(-c2ccc(NC3CCN(C(=O)Cc4ccc(O)c(Cl)c4)CC3)nc2)c1` [Example 4-100], for which the IC50 is 9 nM.

In the case of `Cc1cc(Nc2cc(C(F)(F)F)ccn2)nc(-c2ccc(NC3CCN(C(=O)c4cccc(O)c4)CC3)nc2)c1` [Example 4-101], the IC50 was determined as 8 nM. For `Cc1cc(Nc2cc(C(F)(F)F)ccn2)nc(-c2ccc(NC3CCN(C(=O)Cc4cn(C)c5ccccc45)CC3)nc2)c1` [Example 4-102], the IC50 was 7 nM. Take `Cc1cc(Nc2cc(C(F)(F)F)ccn2)nc(-c2ccc(NC3CCN(C(=O)c4ccc5[nH]c(C)c(C)c5c4)CC3)nc2)c1` [Example 4-103]: the IC50 worked out at 11 nM.

Consider `Cc1cc(Nc2cc(C(F)(F)F)ccn2)nc(-c2ccc(NC3CCN(C(=O)c4ccccn4)CC3)nc2)c1` [Example 4-104], for which the IC50 worked out at 2 nM. With `Cc1cc(Nc2cc(C(F)(F)F)ccn2)nc(-c2ccc(NC3CCN(C(=O)c4cccc(Cl)c4)CC3)nc2)c1` [Example 4-105], the IC50 came to 245 nM. For `Cc1cc(Nc2cc(C(F)(F)F)ccn2)nc(-c2ccc(NC3CCN(C(=O)c4ccc(O)cc4)CC3)nc2)c1` [Example 4-106], the IC50 stood at 6 nM. Next, `Cc1cc(Nc2cc(C(F)(F)F)ccn2)nc(-c2ccc(NC3CCN(C(=O)Cc4cccc(Cl)c4)CC3)nc2)c1` [Example 4-107]: 13 nM. In the case of `Cc1cc(Nc2cc(C(F)(F)F)ccn2)nc(-c2ccc(NC3CCN(C(=O)Cc4ccc(O)cc4)CC3)nc2)c1` [Example 4-108], the 50% inhibitory concentration (IC50) was found to be 3 nM. In the case of `COc1cccc(C(=O)N2CCC(Nc3ccc(-c4cc(C)cc(Nc5cc(C(F)(F)F)ccn5)n4)cn3)CC2)c1` [Example 4-109], the 50% inhibitory concentration (IC50) is 6 nM. For `COc1cccc(CC(=O)N2CCC(Nc3ccc(-c4cc(C)cc(Nc5cc(C(F)(F)F)ccn5)n4)cn3)CC2)c1` [Example 4-110], the IC50 amounted to 6 nM. Regarding `Cc1cc(Nc2cc(C(F)(F)F)ccn2)nc(-c2ccc(NC3CCN(C(=O)c4ccc5ncccc5c4)CC3)nc2)c1` [Example 4-111], the IC50 turned out to be 3 nM. `Cc1cc(Nc2cc(C(F)(F)F)ccn2)nc(-c2ccc(NC3CCN(C(=O)c4ccccc4C#N)CC3)nc2)c1` [Example 4-112]: the IC50 came out at 6 nM. For `Cc1cc(Nc2cc(C(F)(F)F)ccn2)nc(-c2ccc(NC3CCN(C(=O)c4cc5ccccc5n4C)CC3)nc2)c1` [Example 4-113], the IC50 was determined as 26 nM.
